Data taken from PubChem BioAssay AID200 (DTP/NCI, 2004).
Several values for one entry are separate records, joined by “and”; a condition that tells them apart may be missing. Equal values may be shown once. Toxic doses and inconclusive results are not listed. Where a SMILES comes first, the peptide text is derived from it.

Test system: B6C3F1 mice, B16 melanoma ip, median survival T/C
Test: NCI In Vivo Anticancer Drug Screen. Data for tumor model B16 Melanoma (intraperitoneal) in B6C3F1 mice
Conditions: endpoint: median survival time, higher = longer survival
Summary of the method: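 Readout: survival or tumor size in treated mice relative to vehicle controls (T/C). Model uses transplantable tumors grown in mice.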

[1] = dose: 6.25 mg/kg/injection, schedule: Q01DX009 (ip), vehicle: saline with Tween-80
[2] = dose: 12.5 mg/kg/injection, schedule: Q01DX009 (ip), vehicle: saline with Tween-80
[3] = dose: 25.0 mg/kg/injection, schedule: Q01DX009 (ip), vehicle: saline with Tween-80
[4] = dose: 50.0 mg/kg/injection, schedule: Q01DX009 (ip), vehicle: saline with Tween-80
[5] = dose: 100.0 mg/kg/injection, schedule: Q01DX009 (ip), vehicle: saline with Tween-80
[6] = dose: 200.0 mg/kg/injection, schedule: Q01DX009 (ip), vehicle: saline with Tween-80
[7] = dose: 3.12 mg/kg/injection, schedule: Q01DX009 (ip), vehicle: Klucel (hydroxypropylcellulose) (HPC)
[8] = dose: 12.5 mg/kg/injection, schedule: Q01DX009 (ip), vehicle: Klucel (hydroxypropylcellulose) (HPC)
[9] = dose: 25.0 mg/kg/injection, schedule: Q01DX009 (ip), vehicle: Klucel (hydroxypropylcellulose) (HPC)
[10] = dose: 25.0 mg/kg/injection, schedule: Q01DX009 (ip), vehicle: water
[11] = dose: 50.0 mg/kg/injection, schedule: Q01DX009 (ip), vehicle: Klucel (hydroxypropylcellulose) (HPC)
[12] = dose: 50.0 mg/kg/injection, schedule: Q01DX009 (ip), vehicle: water
[13] = dose: 100.0 mg/kg/injection, schedule: Q01DX009 (ip), vehicle: Klucel (hydroxypropylcellulose) (HPC)
[14] = dose: 100.0 mg/kg/injection, schedule: Q01DX009 (ip), vehicle: water
[15] = dose: 200.0 mg/kg/injection, schedule: Q01DX009 (ip), vehicle: Klucel (hydroxypropylcellulose) (HPC)
[16] = dose: 25.0 mg/kg/injection, schedule: Q01DX009 (ip), vehicle: other
[17] = dose: 50.0 mg/kg/injection, schedule: Q01DX009 (ip), vehicle: other
[18] = dose: 100.0 mg/kg/injection, schedule: Q01DX009 (ip), vehicle: other
[19] = dose: 100.0 mg/kg/injection, schedule: Q01DX009 (ip), vehicle: saline
[20] = dose: 200.0 mg/kg/injection, schedule: Q01DX009 (ip), vehicle: saline
[21] = dose: 400.0 mg/kg/injection, schedule: Q01DX009 (ip), vehicle: saline with Tween-80

COC1=C(OC)C(=O)C(SC/C=C(\C)CCCC(C)CCCC(C)CCCC(C)C)=CC1=O (stereo not given)
T/C [1]: 100 % of control | T/C [2]: 109 % of control and 94 % of control | T/C [3]: 101 % of control and 103 % of control | T/C [4]: 121 % of control and 106 % of control | T/C [5]: 117 % of control | T/C [6]: 116 % of control

Clc1ccc(C[P+](c2ccccc2)(c2ccccc2)c2ccccc2)cc1Cl
T/C (dose: 0.78 mg/kg/injection, schedule: Q01DX009 (ip), vehicle: Klucel (hydroxypropylcellulose) (HPC)): 99 % of control | T/C (dose: 1.56 mg/kg/injection, schedule: Q01DX009 (ip), vehicle: Klucel (hydroxypropylcellulose) (HPC)): 107 % of control | T/C [7]: 103 % of control | T/C [8]: 88 % of control

COc1cc2c(c(OC)c1OC)-c1c(cc3c(c1OC)OCO3)CC(C)C(C)(O)C2OC(=O)c1ccccc1 (stereo not given)
T/C (dose: 25.0 mg/kg/injection, schedule: Q01DX009 (ip), vehicle: saline + Tween-80 + alcohol): 107 % of control | T/C (dose: 50.0 mg/kg/injection, schedule: Q01DX009 (ip), vehicle: saline + Tween-80 + alcohol): 98 % of control | T/C (dose: 100.0 mg/kg/injection, schedule: Q01DX009 (ip), vehicle: saline + Tween-80 + alcohol): 115 % of control | T/C (dose: 200.0 mg/kg/injection, schedule: Q01DX009 (ip), vehicle: saline + Tween-80 + alcohol): 110 % of control

C=C1CCC[C@@]2(C)CC[C@@H](/C(C)=C\C=C\C(C)(C)O)C[C@H]12
T/C (dose: 12.5 mg/kg/injection, schedule: Q01DX009 (ip), vehicle: Klucel + Tween-80): 113 % of control | T/C (dose: 25.0 mg/kg/injection, schedule: Q01DX009 (ip), vehicle: Klucel + Tween-80): 106 % of control | T/C (dose: 50.0 mg/kg/injection, schedule: Q01DX009 (ip), vehicle: Klucel + Tween-80): 107 % of control | T/C (dose: 100.0 mg/kg/injection, schedule: Q01DX009 (ip), vehicle: Klucel + Tween-80): 112 % of control | T/C (dose: 200.0 mg/kg/injection, schedule: Q01DX009 (ip), vehicle: Klucel + Tween-80): 90 % of control

Nc1ccc(C(=O)O)cc1
T/C [7]: 100 % of control and 104 % of control | T/C (dose: 6.25 mg/kg/injection, schedule: Q01DX009 (ip), vehicle: Klucel (hydroxypropylcellulose) (HPC)): 114 % of control and 99 % of control and 103 % of control | T/C [8]: 114 % of control and 101 % of control | T/C [9]: 112 % of control and 90 % of control and 107 % of control | T/C [10]: 98 % of control | T/C [11]: 100 % of control | T/C [12]: 101 % of control | T/C [13]: 117 % of control | T/C [14]: 102 % of control | T/C [15]: 105 % of control

COc1cccc2c1C(=O)c1c(O)c3c(c(O)c1C2=O)C[C@@](O)(C(O)CO)C[C@@H]3OC1CC(N(Cc2ccccc2)Cc2ccccc2)C(O)C(C)O1 (stereo not given in full)
T/C (dose: 6.25 mg/kg/injection, schedule: Q01DX001 (ip), vehicle: water): 111 % of control | T/C (dose: 50.0 mg/kg/injection, schedule: Q01DX001 (ip), vehicle: water): 166 % of control | T/C [12]: 160 % of control | T/C (dose: 100.0 mg/kg/injection, schedule: Q01DX001 (ip), vehicle: water): 196 % of control | T/C (dose: 200.0 mg/kg/injection, schedule: Q01DX001 (ip), vehicle: water): 232 % of control

CC(C)(C)OC(=O)NC(Cc1ccc(O)cc1)C(=O)O (stereo not given)
T/C [13]: 108 % of control | T/C [15]: 103 % of control | T/C (dose: 400.0 mg/kg/injection, schedule: Q01DX009 (ip), vehicle: Klucel (hydroxypropylcellulose) (HPC)): 97 % of control

ClC1=C(Cl)C2(Cl)C3C(Cl)C(Cl)CC3C1(Cl)C2(Cl)Cl (stereo not given)
T/C (dose: 1.56 mg/kg/injection, schedule: Q01DX009 (ip), vehicle: saline with Tween-80): 106 % of control | T/C (dose: 3.12 mg/kg/injection, schedule: Q01DX009 (ip), vehicle: saline with Tween-80): 98 % of control | T/C [1]: 101 % of control | T/C [2]: 97 % of control | T/C [16]: 95 % of control | T/C [3]: 87 % of control | T/C [17]: 106 % of control | T/C [18]: 97 % of control

O=[N+]([O-])c1ccc2c3c(ccc([N+](=O)[O-])c13)CC2
T/C [9]: 89 % of control | T/C [11]: 89 % of control | T/C [13]: 91 % of control and 95 % of control

NCC(=O)NC(Cc1ccc(O)cc1)C(=O)O (stereo not given) (HELM PEPTIDE1{G.[O=C(O)C(Cc1ccc(O)cc1)N[*:1]]}$$$$V2.0)
T/C [19]: 110 % of control | T/C [20]: 123 % of control

CCCCNc1nc(N)nc(Nc2ccc(Br)cc2)c1N=O
T/C [11]: 97 % of control | T/C [13]: 92 % of control

O=Cc1ccc(O)c(O)c1
T/C [1]: 100 % of control | T/C [2]: 87 % of control | T/C (dose: 12.5 mg/kg/injection, schedule: Q01DX009 (ip), vehicle: saline): 97 % of control | T/C [3]: 94 % of control and 97 % of control | T/C (dose: 25.0 mg/kg/injection, schedule: Q01DX009 (ip), vehicle: saline): 99 % of control | T/C [10]: 112 % of control and 100 % of control | T/C [4]: 93 % of control | T/C (dose: 50.0 mg/kg/injection, schedule: Q01DX009 (ip), vehicle: saline): 89 % of control | T/C [12]: 112 % of control and 90 % of control | T/C [5]: 89 % of control | T/C [19]: 96 % of control | T/C [14]: 95 % of control and 96 % of control | T/C [6]: 89 % of control | T/C [20]: 95 % of control | T/C [21]: 92 % of control | T/C (dose: 400.0 mg/kg/injection, schedule: Q01DX009 (ip), vehicle: saline): 104 % of control

CCOC(=O)NC(N)=O
T/C [4]: 101 % of control | T/C [5]: 117 % of control | T/C [6]: 102 % of control | T/C [21]: 105 % of control

C[C@H](N)C(=O)N[C@@H]1[C@H]2C(=C(O)C[C@@H](O)[C@@H]2O)C(=O)O[C@]1(C)C(Cl)Cl
T/C (dose: 0.18 mg/kg/injection, schedule: Q01DX009 (ip), vehicle: Klucel (hydroxypropylcellulose) (HPC)): 95 % of control | T/C (dose: 0.19 mg/kg/injection, schedule: Q01DX009 (ip), vehicle: Klucel (hydroxypropylcellulose) (HPC)): 100 % of control | T/C (dose: 0.37 mg/kg/injection, schedule: Q01DX009 (ip), vehicle: Klucel (hydroxypropylcellulose) (HPC)): 101 % of control and 107 % of control | T/C (dose: 0.38 mg/kg/injection, schedule: Q01DX009 (ip), vehicle: Klucel (hydroxypropylcellulose) (HPC)): 105 % of control | T/C (dose: 0.75 mg/kg/injection, schedule: Q01DX009 (ip), vehicle: Klucel (hydroxypropylcellulose) (HPC)): 116 % of control and 104 % of control (2×) | T/C (dose: 1.5 mg/kg/injection, schedule: Q01DX009 (ip), vehicle: Klucel (hydroxypropylcellulose) (HPC)): 112 % of control and 113 % of control and 118 % of control

CCCOC(=O)c1nc(N(CC2CCCCC2)C(=O)NC)sc1/N=C/c1ccccc1
T/C (dose: 9.0 mg/kg/injection, schedule: Q01DX009 (ip), vehicle: saline with Tween-80): 96 % of control | T/C (dose: 18.0 mg/kg/injection, schedule: Q01DX009 (ip), vehicle: saline with Tween-80): 86 % of control | T/C (dose: 36.0 mg/kg/injection, schedule: Q01DX009 (ip), vehicle: saline with Tween-80): 86 % of control

CN(C)N=Nc1ccc2c(c1)N(C)c1ccc(Cl)cc1S2
T/C (dose: 6.25 mg/kg/injection, schedule: Q01DX009 (ip), vehicle: other): 99 % of control | T/C (dose: 12.5 mg/kg/injection, schedule: Q01DX009 (ip), vehicle: other): 109 % of control | T/C [16]: 114 % of control | T/C [17]: 110 % of control | T/C [18]: 114 % of control

COC(=O)Nc1ccc(Cc2ccc(NC(=O)OC)cc2)cc1
T/C [1]: 98 % of control | T/C [2]: 99 % of control | T/C [3]: 109 % of control and 98 % of control | T/C [4]: 109 % of control | T/C [5]: 150 % of control

COC(=O)[C@@]12OC[C@]34[C@H]([C@@H](O)[C@@H]1O)[C@@]1(C)CC(=O)C(O)=C(C)[C@@H]1C[C@H]3OC(=O)[C@H](OC(=O)/C=C(\C)C(C)CO)[C@@H]24 (stereo not given in full)
T/C (dose: 6.0 mg/kg/injection, schedule: Q01DX009 (ip), vehicle: saline + alcohol): 174 % of control | T/C (dose: 8.0 mg/kg/injection, schedule: Q01DX009 (ip), vehicle: saline + alcohol): 161 % of control and 173 % of control

[Cl][Pt+2][Cl].[NH-]C1CCC1.[NH2-]
T/C (dose: 0.75 mg/kg/injection, schedule: Q01DX009 (ip), vehicle: saline): 151 % of control | T/C (dose: 3.0 mg/kg/injection, schedule: Q01DX009 (ip), vehicle: saline): 205 % of control
